The record followed here is the kinase profiling compilation of Christmann-Franck et al. (2016).

Each structure is given as a SMILES string.

Experiment in all cases: KINOMEscan competition binding
What all share (settings): compound 10.0 µM

For test [1], the system named is ABL1 (human), P00519 [H396P].
The next test concerns the target BRAF (human) (UniProt P15056).
For test [2], the system named is BRAF (human), P15056 [V600E].
Another test deals with HIPK4 (human) (UniProt Q8NE63).
The target in the next test is RPS6KB1 (human) (UniProt P23443).
RPS6KB1 (human), sequence (P23443 whole entry, looked up): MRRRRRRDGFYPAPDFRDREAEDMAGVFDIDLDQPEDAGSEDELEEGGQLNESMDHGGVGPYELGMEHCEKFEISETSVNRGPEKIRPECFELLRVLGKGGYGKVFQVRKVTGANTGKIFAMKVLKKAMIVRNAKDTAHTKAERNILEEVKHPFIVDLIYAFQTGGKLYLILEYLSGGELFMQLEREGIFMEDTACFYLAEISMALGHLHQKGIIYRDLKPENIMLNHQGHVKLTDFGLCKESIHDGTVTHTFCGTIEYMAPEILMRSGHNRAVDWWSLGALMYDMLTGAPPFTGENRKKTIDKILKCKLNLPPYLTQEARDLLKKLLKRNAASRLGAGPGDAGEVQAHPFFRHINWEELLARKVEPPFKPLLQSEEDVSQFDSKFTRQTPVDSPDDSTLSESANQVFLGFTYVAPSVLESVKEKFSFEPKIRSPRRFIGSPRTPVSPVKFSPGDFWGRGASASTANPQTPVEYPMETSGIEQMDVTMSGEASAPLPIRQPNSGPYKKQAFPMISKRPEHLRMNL
Test [3] deals with PIK3CA (human), P42336 [H1047L].
PIK3CA (human), P42336 [H1047L], sequence (P42336 whole entry H1047L, looked up): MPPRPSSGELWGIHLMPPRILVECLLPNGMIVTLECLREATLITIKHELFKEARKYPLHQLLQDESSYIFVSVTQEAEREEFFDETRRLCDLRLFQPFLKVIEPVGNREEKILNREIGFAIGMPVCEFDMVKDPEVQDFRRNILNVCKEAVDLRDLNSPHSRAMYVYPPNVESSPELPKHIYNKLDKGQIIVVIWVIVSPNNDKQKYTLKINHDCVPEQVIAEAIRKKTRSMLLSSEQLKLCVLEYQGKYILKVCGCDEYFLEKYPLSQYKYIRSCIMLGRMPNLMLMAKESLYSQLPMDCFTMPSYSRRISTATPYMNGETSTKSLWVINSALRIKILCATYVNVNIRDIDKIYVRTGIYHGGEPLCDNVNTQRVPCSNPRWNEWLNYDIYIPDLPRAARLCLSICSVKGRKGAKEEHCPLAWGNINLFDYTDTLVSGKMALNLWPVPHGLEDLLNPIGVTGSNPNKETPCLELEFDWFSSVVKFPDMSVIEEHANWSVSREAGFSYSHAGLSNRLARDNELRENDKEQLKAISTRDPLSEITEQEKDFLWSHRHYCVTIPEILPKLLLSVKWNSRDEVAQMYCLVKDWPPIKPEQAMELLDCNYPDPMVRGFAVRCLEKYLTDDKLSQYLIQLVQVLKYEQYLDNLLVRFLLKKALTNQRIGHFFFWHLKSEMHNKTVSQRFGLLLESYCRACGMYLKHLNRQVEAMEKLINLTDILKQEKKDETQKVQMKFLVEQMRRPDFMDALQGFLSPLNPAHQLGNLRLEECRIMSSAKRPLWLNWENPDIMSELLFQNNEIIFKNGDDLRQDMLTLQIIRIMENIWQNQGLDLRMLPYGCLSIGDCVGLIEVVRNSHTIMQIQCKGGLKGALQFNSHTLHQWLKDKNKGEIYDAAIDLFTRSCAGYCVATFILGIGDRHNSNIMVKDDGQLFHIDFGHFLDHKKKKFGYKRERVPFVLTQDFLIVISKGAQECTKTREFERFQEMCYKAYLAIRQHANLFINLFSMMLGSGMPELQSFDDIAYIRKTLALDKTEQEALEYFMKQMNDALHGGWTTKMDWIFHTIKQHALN
The next test deals with MAP3K1 (human) (UniProt Q13233).
For test [4], the system named is KIT (human), P10721 [A829P].
KIT (human), P10721 [A829P], sequence (P10721 whole entry A829P, looked up): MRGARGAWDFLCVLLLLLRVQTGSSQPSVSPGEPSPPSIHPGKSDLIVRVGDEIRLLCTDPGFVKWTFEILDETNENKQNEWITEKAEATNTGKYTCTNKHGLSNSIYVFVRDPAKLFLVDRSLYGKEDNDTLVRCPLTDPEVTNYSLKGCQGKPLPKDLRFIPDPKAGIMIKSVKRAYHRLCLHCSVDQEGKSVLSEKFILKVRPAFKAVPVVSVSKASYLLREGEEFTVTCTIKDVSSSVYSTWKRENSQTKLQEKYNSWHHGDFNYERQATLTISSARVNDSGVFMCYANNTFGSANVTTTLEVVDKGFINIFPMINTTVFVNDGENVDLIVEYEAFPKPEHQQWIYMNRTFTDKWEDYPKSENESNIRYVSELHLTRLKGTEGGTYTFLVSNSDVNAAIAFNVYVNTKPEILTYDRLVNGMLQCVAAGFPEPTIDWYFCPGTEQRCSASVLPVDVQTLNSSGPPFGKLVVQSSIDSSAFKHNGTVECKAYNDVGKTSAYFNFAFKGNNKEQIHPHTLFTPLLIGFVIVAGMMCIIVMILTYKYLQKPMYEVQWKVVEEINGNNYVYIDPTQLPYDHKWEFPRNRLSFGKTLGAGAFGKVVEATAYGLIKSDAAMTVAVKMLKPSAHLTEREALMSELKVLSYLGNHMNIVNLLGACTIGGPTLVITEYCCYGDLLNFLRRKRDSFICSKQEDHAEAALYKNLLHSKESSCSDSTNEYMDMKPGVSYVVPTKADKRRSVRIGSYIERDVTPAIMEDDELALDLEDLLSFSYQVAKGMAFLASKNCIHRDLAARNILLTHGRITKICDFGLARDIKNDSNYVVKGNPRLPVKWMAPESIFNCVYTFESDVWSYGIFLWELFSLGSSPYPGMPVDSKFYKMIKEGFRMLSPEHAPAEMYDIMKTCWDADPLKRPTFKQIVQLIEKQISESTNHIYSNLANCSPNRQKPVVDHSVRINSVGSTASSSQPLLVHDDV
In test [5] the test system is KIT (human), P10721 [L576P].
KIT (human), P10721 [L576P], sequence (P10721 whole entry L576P, looked up): as the sequence (P10721 whole entry A829P, looked up) above, with L576P, P829A counted along it
Test [6] has as its system KIT (human), P10721 [D816H].
A further test addresses CDKL3 (human) (UniProt Q8IVW4).
The next test addresses MAP3K6 (human) (UniProt O95382).
Test [7] relates to PIK3CA (human), P42336 [I800L].
PIK3CA (human), P42336 [I800L], sequence (P42336 whole entry I800L, looked up): as the sequence (P42336 whole entry H1047L, looked up) above, with I800L, L1047H counted along it
The target in a further test is NEK11 (human) (UniProt Q8NG66).
Test [8] has as its system FLT3 (human), P36888 [R834Q].

MAP3K6 (human), sequence (O95382 whole entry, looked up): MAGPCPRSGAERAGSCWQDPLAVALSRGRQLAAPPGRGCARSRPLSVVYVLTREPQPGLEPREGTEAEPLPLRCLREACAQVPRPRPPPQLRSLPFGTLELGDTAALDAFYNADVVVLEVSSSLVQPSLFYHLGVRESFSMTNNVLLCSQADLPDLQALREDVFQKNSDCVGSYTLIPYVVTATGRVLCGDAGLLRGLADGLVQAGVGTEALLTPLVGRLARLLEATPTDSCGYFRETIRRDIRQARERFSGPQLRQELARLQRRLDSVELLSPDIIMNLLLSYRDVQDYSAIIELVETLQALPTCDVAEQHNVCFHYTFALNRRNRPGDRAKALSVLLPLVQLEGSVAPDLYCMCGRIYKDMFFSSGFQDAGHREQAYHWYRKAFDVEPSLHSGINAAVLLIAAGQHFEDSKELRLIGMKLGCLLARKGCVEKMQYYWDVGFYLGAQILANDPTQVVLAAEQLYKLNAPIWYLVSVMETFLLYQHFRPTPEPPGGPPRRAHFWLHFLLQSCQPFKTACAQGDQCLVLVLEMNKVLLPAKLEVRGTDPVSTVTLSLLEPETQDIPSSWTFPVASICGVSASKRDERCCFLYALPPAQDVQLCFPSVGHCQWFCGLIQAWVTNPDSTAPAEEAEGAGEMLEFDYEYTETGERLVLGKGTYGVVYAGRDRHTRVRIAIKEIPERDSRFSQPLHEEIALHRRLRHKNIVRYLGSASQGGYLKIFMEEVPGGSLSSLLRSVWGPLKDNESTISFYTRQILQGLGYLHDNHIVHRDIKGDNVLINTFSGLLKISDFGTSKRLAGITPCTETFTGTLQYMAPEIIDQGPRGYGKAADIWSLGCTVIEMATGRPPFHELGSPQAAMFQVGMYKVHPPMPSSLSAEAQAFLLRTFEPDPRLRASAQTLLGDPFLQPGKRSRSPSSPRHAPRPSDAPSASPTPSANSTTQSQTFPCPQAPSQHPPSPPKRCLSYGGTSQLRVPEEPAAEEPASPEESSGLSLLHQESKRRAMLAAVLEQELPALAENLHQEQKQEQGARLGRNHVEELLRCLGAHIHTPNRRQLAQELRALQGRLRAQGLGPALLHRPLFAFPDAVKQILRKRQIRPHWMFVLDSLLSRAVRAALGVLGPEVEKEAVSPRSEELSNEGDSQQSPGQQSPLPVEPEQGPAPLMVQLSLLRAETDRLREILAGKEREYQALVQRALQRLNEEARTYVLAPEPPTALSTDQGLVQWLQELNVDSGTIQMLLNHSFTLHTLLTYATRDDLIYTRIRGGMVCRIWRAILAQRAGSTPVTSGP
HIPK4 (human), sequence (Q8NE63 whole entry, looked up): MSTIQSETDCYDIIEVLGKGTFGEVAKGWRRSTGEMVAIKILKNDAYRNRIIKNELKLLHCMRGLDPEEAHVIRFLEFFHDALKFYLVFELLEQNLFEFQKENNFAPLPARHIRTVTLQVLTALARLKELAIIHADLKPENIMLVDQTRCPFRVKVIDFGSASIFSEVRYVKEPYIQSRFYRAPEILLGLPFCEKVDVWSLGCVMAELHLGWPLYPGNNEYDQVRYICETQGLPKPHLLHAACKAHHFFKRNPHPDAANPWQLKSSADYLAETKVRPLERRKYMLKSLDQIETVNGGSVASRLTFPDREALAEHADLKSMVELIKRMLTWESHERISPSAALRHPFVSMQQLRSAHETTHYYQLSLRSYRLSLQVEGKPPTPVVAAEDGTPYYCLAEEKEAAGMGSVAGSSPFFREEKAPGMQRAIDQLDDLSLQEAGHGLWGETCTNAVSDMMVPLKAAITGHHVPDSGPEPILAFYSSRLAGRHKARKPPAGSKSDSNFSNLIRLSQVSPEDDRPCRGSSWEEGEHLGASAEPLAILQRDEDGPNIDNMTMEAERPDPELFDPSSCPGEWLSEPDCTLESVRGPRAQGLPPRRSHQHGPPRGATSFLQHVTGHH
KIT (human), P10721 [D816H], sequence (P10721 whole entry D816H, looked up): as the sequence (P10721 whole entry A829P, looked up) above, with D816H, P829A counted along it

In [1], `CCN1CCN(Cc2ccc(NC(=O)c3ccc(C)c(Oc4ccnc5[nH]ccc45)c3)cc2C(F)(F)F)CC1` returned a kinase still bound, per cent of control of 0.7%.
With `COc1cc(N2CCC(N3CCN(C)CC3)CC2)ccc1Nc1ncc(Cl)c(Nc2ccccc2S(=O)(=O)C(C)C)n1`, the kinase still bound, per cent of control (at BRAF (human); in test [2]) was 40% throughout.
Regarding `CCOc1cc(N2CCC(N3CCCCC3)CC2)ccc1Nc1nc(Nc2ccccc2S(=O)(=O)C(C)C)c2cn[nH]c2n1`, the kinase still bound, per cent of control on HIPK4 (human) stood at 44%; on RPS6KB1 (human) it was 100%; in [3] it was 100%; at MAP3K1 (human), 82%; in test [4], 100%; in test [5] it was 67%. Moreover, the kinase still bound, per cent of control in [6] came out at 73%; at CDKL3 (human), 100%; on MAP3K6 (human), 99%; in test [7], 100%; at NEK11 (human), 100%; in test [8], 100%.
As for `CCN1CCN(Cc2ccc(NC(=O)c3ccc(C)c(/C=C/c4cnc(Nc5cc(N6CCNCC6)nc(C)n5)cn4)c3)cc2C(F)(F)F)CC1`, the kinase still bound, per cent of control at HIPK4 (human) worked out at 15%; at RPS6KB1 (human), 6.2%; in test [3], 97%; on MAP3K1 (human), 75%; in test [4], 33%; in test [5], 0.2%. The kinase still bound, per cent of control in [6] amounted to 20%; at CDKL3 (human), 0.55%; on MAP3K6 (human) it was 93%; in test [7], 94%; at NEK11 (human), 40%; in test [8] it was 8.6%.
